In assay [1] the test system is female SD rat. Description: Agonistic (estrogenic) activity: immature rat uterine weight (Example 1(2)). It counts as in vivo. As to conditions: substance alone. Here is the method:
A 17-days old female SD rat (purchased from Japan SLC) was received together with its mother, weaned at 20 days of age, and subjected to experiments from the next day. Five ml per kg body weight of EGCG (Sigma) or bisphenol-A (hereinafter referred to as BisA, Tokyo Kasei Kogyo) suspended in peanut oil (Nacalai Tesque) was administered orally and forcibly. Peanut oil was administered to a control rat in a similar manner. Administration was carried out once a day for three successive days. The uterine removed 24 hours after the last administration was weighed. BisA or EGCG (80 or 800 mg/kg) was administered. […]

For assay [2], the system named is female SD rat. Description: Antagonistic (anti-estrogenic) activity of EGCG against bisphenol-A, immature rat uterine weight (Example 1(3)). It counts as in vivo. As to conditions: BisA 800 mg/kg oral alone. As for the experimental part: A 17-days old female SD rat (purchased from Japan SLC) was received together with its mother, weaned at 20 days of age, and subjected to experiments from the next day. Five ml per kg body weight of EGCG (Sigma) or bisphenol-A (hereinafter referred to as BisA, Tokyo Kasei Kogyo) suspended in peanut oil (Nacalai Tesque) was administered orally and forcibly. Peanut oil was administered to a control rat in a similar manner. Administration was carried out once a day for three successive days. The uterine removed 24 hours after the last administration was weighed. BisA (800 mg/kg) and EGCG (800 mg/kg) were administered at the same time.

Assay [3] relates to female SD rat. Description: Anti-estrogenic activity of solution of EGCG in ethanol against bisphenol-A, rat uterine weight (Example 2). It counts as in vivo. The following applies: for Uterine weight: mean ± standard error; for Ratio: vs control (100%). As for the experimental part: A 17-days old female SD rat (purchased from Japan SLC) was received together with its mother, weaned at 20 days of age, and subjected to experiments from the next day. BisA was weighed such that it would be administered at 200 or 40 mg/kg and dissolved in a small volume of ethanol. Peanut oil was added thereto to result in a final ethanol concentration of 5%. The resulting mixture was orally administered for three successive days. The uterine removed on the next day was weighed. EGCG was dissolved by adding ethanol and water was then added thereto to adjust the final ethanol concentration to 10%. The solution was orally administered on the day before the administration of BisA and 30 minutes before each of the successive administrations of BisA.

Assay [4] concerns female SD rat. The experiment in a line: Effect of ethanol concentration on anti-estrogenic activity of EGCG, rat uterine weight (Example 4). In kind it is in vivo. As to conditions: BisA 40 mg/kg subcutaneous alone. Here is the method: (§1) A 16-days old female SD rat (Japan SLC) was purchased together with its mother, weaned at 19 days of age, and subjected to experiments from the next day. BisA was weighed such that it would be administered at 40 mg/kg and dissolved in a small volume of ethanol. Peanut oil was added thereto to result in a final ethanol concentration of 5%. The resulting mixture was subcutaneously administered for three successive days. The uterine removed on the day after the third administration day was weighed. EGCG (200 mg/kg) was dissolved by adding ethanol and water was then added thereto to adjust the final ethanol concentration to 10, 5, 1, 0.5 or 0%. The solution was orally administered 90 minutes before the administration of BisA.

Assay [5] deals with female SD rat. Description: Anti-estrogenic activity of solution of EGCG in ethanol, subcutaneous BisA, rat uterine weight (Example 5). In kind it is in vivo. As to conditions: BisA 40 mg/kg subcutaneous alone. As for the experimental part:
as §1, with “10” for “10, 5, 1, 0.5”, “30” for “90”

In assay [6] the test system is female SD rat. Description: Dose dependency of anti-estrogenic activity of solution of EGCG in ethanol, rat uterine weight (Example 6). It counts as in vivo. The following applies: for Ratio: vs control (100%). Here is the method: as §1, with “subcutaneously or orally” for “subcutaneously”, “EGCG” for “EGCG (200 mg/kg)”, “10%.” for “10, 5, 1, 0.5 or 0%.”, “30” for “90”

Assay [7] relates to human breast cancer-derived MCF-7 cells. Description: E-SCREEN assay, proliferation of cultured cells, MTT method (Example 8). It counts as cell-based. The following applies: BisA alone. Here is the method: A test for proliferation of cultured cells was carried out according to a method called the E-SCREEN assay as described in Ana M. Soto et al. (Environ. Health Perspect. 103:113-122(1995)). Briefly, 4.0 x 10^3 of human breast cancer-derived MCF-7 cells in a volume of 100 µL were seeded into each well of a 96-well plate. The plate was incubated overnight. BisA or a combination of BisA and n-octyl gallate was then added thereto. A well without the addition was used as a control. The cells were further cultured for 4 days in a medium, Dulbecco's modified Eagle medium without Phenol Red supplemented with 5% FCS treated with activated carbon-dextran. The MTT method was used to measured the cell numbers.
On the technique in general: Tetrazolium assays rely on reduction of a dye to a coloured formazan, in cell work by metabolically active cells.

Assay [8] concerns female SD rat. The experiment in a line: Anti-estrogenic activity of n-octyl gallate against BisA, rat uterine weight (Example 9). It counts as in vivo. The following applies: BisA 40 mg/kg oral + vehicle. As for the experimental part:
(§2) A 16-days old female SD rat (Japan SLC) was purchased together with its mother, weaned at 19 days of age, and subjected to experiments from the next day. n-Octyl gallate (Tokyo Kasei Kogyo) was dissolved in a small volume of ethanol. Peanut oil was added thereto to result in a final ethanol concentration of 5%. The resulting mixture was orally administered to the 20-days old female SD rat for three successive days. The uterine removed on the day after the last administration day was weighed. Peanut oil containing 5% ethanol was used for a vehicle administration group. BisA was dissolved in a small volume of ethanol. Peanut oil was added thereto to result in a final ethanol concentration of 5%. It was orally administered 1.5 hours after the administration of n-octyl gallate.

Assay [9] relates to female SD rat. Description: Anti-estrogenic activity of n-octyl gallate or n-cetyl gallate against subcutaneously administered BisA, rat uterine weight (Example 11). It counts as in vivo. As to conditions: for Ratio: vs control (100%). As for the experimental part:
as §2, with “17-days” for “16-days”, “20” for “19”, “or n-cetyl gallate (both from Tokyo” for “(Tokyo”, “21-days” for “20-days”, “The mixture” for “It”, “subcutaneously administered.” for “orally administered 1.5 hours after the administration of n-octyl gallate.”

The subject of assay [10] is female SD rat. The experiment in a line: Anti-estrogenic activity of solution of EGCG in ethanol against 4-nonylphenol, rat uterine weight (Example 3). In kind it is in vivo. The following applies: NP 50 mg/kg oral alone. Here is the method:
A 16-days old female SD rat (Japan SLC) was purchased together with its mother, weaned at 19 days of age, and subjected to experiments from the next day.
4-Nonylphenol (hereinafter referred to as NP) was weighed such that it would be administered at 50 mg/kg and diluted by adding peanut oil thereto. The resulting mixture was orally administered for three successive days. The uterine removed on the day after the third administration day was weighed. EGCG was dissolved by adding ethanol and water was then added thereto to adjust the final ethanol concentration to 10%. The solution was orally administered 90 minutes before the administration of NP.

The test system of assay [11] is female SD rat. Description: Anti-estrogenic activity of n-octyl gallate against NP, rat uterine weight (Example 10). The following applies: NP 50 mg/kg oral + vehicle. In kind it is in vivo. Here is the method:
A 16-days old female SD rat (Japan SLC) was purchased together with its mother, weaned at 19 days of age, and subjected to experiments from the next day. n-Octyl gallate (Tokyo Kasei Kogyo) was dissolved in a small volume of ethanol. Peanut oil was added thereto to result in a final ethanol concentration of 5%. The resulting mixture was orally administered to the 20-days old female SD rat for three successive days. The uterine removed on the day after the last administration day was weighed. Peanut oil containing 5% ethanol was used for a vehicle administration group. NP weighed such that it would be administered at 50 mg/kg was diluted by adding peanut oil. It was orally administered 1.5 hours after the administration of n-octyl gallate.

In assay [12] the target is T1, ER(α) (estrogen receptor α) (Homo sapiens, UniProt P03372).
T1 construct: purchased PanVera V2577
T1 sequence (P03372 1-595): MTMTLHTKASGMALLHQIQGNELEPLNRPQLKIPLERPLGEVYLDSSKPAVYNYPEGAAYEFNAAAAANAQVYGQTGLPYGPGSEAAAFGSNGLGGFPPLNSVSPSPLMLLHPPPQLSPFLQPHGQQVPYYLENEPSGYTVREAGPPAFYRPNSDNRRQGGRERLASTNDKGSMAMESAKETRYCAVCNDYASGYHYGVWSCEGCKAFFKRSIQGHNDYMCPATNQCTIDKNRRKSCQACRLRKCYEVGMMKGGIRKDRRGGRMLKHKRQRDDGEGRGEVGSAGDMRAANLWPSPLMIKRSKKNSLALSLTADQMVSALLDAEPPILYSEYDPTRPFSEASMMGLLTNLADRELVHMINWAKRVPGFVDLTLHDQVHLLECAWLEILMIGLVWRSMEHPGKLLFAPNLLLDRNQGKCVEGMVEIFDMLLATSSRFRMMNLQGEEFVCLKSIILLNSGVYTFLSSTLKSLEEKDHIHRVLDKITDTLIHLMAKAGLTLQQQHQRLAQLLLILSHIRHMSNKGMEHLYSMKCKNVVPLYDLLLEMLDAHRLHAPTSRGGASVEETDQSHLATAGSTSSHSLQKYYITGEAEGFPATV
Description: Binding to estrogen receptor, fluorescence polarization competition (FP Screen-for-Competitors kit, ER-α) (Example 7). As to conditions: concentration inhibiting 50% of the binding of the ES1-ER(α) complex by competing with ES1; 1 hour at room temperature. As for the experimental part: Bindings of various gallic acid derivatives to estrogen receptor were tested using FP Screen-for-Competitors kit, ER-α, high sensitivity kit (V2577: PanVera). The tests were carried out basically according to the procedure as described in the manual attached to the kit. One of various gallic acid derivatives (n-octyl gallate (gallic acid n-octyl ester), n-dodecyl gallate (gallic acid n-dodecyl ester) and n-cetyl gallate (gallic acid n-hexadecyl ester)) was dissolved in DMSO and serially diluted to prepare diluted samples (0.5 M - 0.0000000005 M). 49 µL of Screening buffer attached to the kit was added to 1 µL of one of the diluted samples and stirred thoroughly. 50 µL of 10 nM-15 nM:ES1-ER(α) complex (a complex of ES1 (a fluorescent ligand that binds to ER) and ER(α) (estrogen receptor α)) attached to the kit was added thereto, resulting in the total volume of 100 µL. After allowing to stand for 1 hour at room temperature, fluorescence polarization was measured at an excitation wavelength of 360 nm and an emission wavelength of 535 nm using Full-Range BEACON 2000 (PanVera).
On the technique in general: Polarisation of emitted light reports the rotation of a fluorescent probe.

`CC(C)(c1ccc(O)cc1)c1ccc(O)cc1` [BisA, bisphenol-A, reference compound]: the Uterine weight in the assay with female SD rat [1] (800 mg/kg oral in peanut oil, once a day for 3 days, mean ± standard error) amounted to 55.2 ± 2.3 mg; in the assay with female SD rat [2] (mean ± standard error), 54.7 ± 5.5 mg; with female SD rat [3] (BisA 40 mg/kg oral alone), 64.5 ± 9.2 mg; with female SD rat [3] (BisA 200 mg/kg oral alone), 57.7 ± 5.2 mg; in the assay on female SD rat [4] (mean ± standard error), 49.9 ± 2.1 mg; with female SD rat [5] (mean ± standard error), 50.0 ± 2.7 mg. Further, the Uterine weight turned out to be 52.2 ± 2.9 mg in the assay with female SD rat [6] (BisA 40 mg/kg subcutaneous alone, mean ± standard error); 48.9 ± 2.1 mg in the assay on female SD rat [8] (mean ± standard error); 59.7 ± 2.7 mg with female SD rat [9] (BisA 40 mg/kg subcutaneous + vehicle, mean ± standard error). For the same molecule, the Ratio is recorded as 137% in the assay on female SD rat [1] (uterine weight vs control group (100%), 800 mg/kg oral, 3 days); 147% in the assay on female SD rat [2] (vs control (100%)); 149% with female SD rat [3] (BisA 40 mg/kg, oral, alone); 133% with female SD rat [3] (BisA 200 mg/kg oral alone); 186% with female SD rat [4] (vs control (100%)); 162% with female SD rat [5] (vs control (100%)). Further, the Ratio was found to be 160% in the assay on female SD rat [6] (BisA 40 mg/kg subcutaneous alone); 140% in the assay on female SD rat [6] (BisA 40 mg/kg, oral, alone); 161% with female SD rat [8] (vs control (100%)); 145% with female SD rat [9] (BisA 40 mg/kg subcutaneous + vehicle). Also, in assay [7] (MCF-7), the “number of the cells proliferated relative to the control” value is 1.8 fold. In addition, the “Relative rate of increase in cell number” value in assay [7] (MCF-7, 4 days culture, control = 100) was 180%.
With `CCCCCCCCCc1ccc(O)cc1` [NP, 4-Nonylphenol, reference compound], the values for the Uterine weight in the assay on female SD rat [10] (mean ± standard error) and in the assay with female SD rat [11] (mean ± standard error) were 44.4 ± 3.2 mg and 47.6 ± 2.3 mg, respectively. Also, the Ratio with female SD rat [10] (vs control (100%)) and in the assay with female SD rat [11] (vs control (100%)) was 144% in each case.
On to `CCCCCCCCCCCCOC(=O)c1cc(O)c(O)c(O)c1` [n-Dodecyl gallate, gallic acid n-dodecyl ester], for which the half-maximal inhibitory concentration (IC50) (in general, the point on the concentration scale where inhibition reaches its midpoint) in [12] was determined as 0.311 µM.
On to `CCCCCCCCCCCCCCCCOC(=O)c1cc(O)c(O)c(O)c1` [n-cetyl gallate, gallic acid n-hexadecyl ester], for which the half-maximal inhibitory concentration (IC50) in assay [12] came out at 0.0476 µM. Moreover, the Uterine weight in the assay on female SD rat [9] (BisA 40 mg/kg subcutaneous + n-cetyl gallate 1 mg/kg oral, 3 days) was 45.1 ± 2.3 mg; in the assay on female SD rat [9] (BisA 40 mg/kg subcutaneous + n-cetyl gallate 5 mg/kg oral, 3 days) it was 43.1 ± 2.0 mg. Further, the figures for the Ratio with female SD rat [9] (BisA 40 mg/kg subcutaneous + n-cetyl gallate 1 mg/kg oral) and in the assay on female SD rat [9] (BisA 40 mg/kg subcutaneous + n-cetyl gallate 5 mg/kg oral) were 109% and 104%, respectively.

The values are drawn from patent EP1232756A1, “DRUGS, DRINKS OR FOODS” (Takara Shuzo Co, Ltd., priority 1999, dated 2001).
